Here are results for two molecules from patent US9949961B2, “Agent for the prophylaxis and/or treatment of neoplastic diseases” (priority 2013, dated 2018).

Data set [1] concerns hepatic tumors induced by DENA. The experiment in a line: Preventive effect on hepatic neoplasms induced by N-diethyl nitrosamine (DENA) in rats. The format is in vivo, male Wistar rats. To be noted: for Preventive effect in relation to hepatic tumors: 25 mg/kg a day, DENA carcinogenesis in rats; for Weight of rats / Number of animals with induced tumors / Number of hepatic tumors: 25 mg/kg/day in drinking water, DENA 30 mg/kg/week i.p.; for Weight of rats: from 3 weeks prior to DENA and then 2.5 months; for Number of animals with induced tumors: 16 animals in group; for Number of hepatic tumors: counted visually on liver surface. On the procedure: The efficacy of preventive effects of Products 1 and 2 in relation to hepatic neoplasms was shown in the experiment on male Wistar rats which were intraperitoneally administered with chemical carcinogen-N-diethyl nitrosamine (DENA) (Nitrosodiethylamin (N—N)). The nature of the invention is explained with the execution example.
To solve the task, 3 groups of male Wistar rats weighing 150-200 g were formed, 16 in each. Rats of the control group were administered intraperitoneally with DENA in dose 30 mg/kg/week. The dosage was administered in 2 doses: Monday and Thursday. The animals of test groups were similarly administered with DENA. Rats of test groups took drinking water in addition to Products 1 and 2 assuming that they took 25 mg/kg of body weight/day with water. The animals started taking the products 3 weeks prior administration of N-diethyl nitrosamine to develop protective background in animal body and subsequently for 2.5 months.
During the experiment, weight of rats was controlled. After autopsy of animals, liver was weighted, tumors were visually counted on its surface and photographed.

For data set [2], the system named is Lewis carcinoma. The data set is described as follows: Anti-neoplastic and anti-metastatic activity in mice with Lewis carcinoma implanted to the paw. To be noted: for Number of lung metastases: day 21 after tumor implantation; for Growth of Lewis carcinoma in mice: 5 and 25 mg/kg, inhibition is dose-related. The format is in vivo, male mice F1 (CBA×C57B1/6). As for the experimental part:
The efficacy of anti-neoplastic (anti-proliferative) and anti-metastatic properties of products 1 and 2 was shown in the experiment on male mice F1 (CBA×CS7B1/6) with Lewis carcinoma implanted to the paw following intragastric administration in two doses: 5 mg/kg and 25 mg/kg for 3 weeks immediately after implantation and within 1 week prior tumor transplantation.
Test system. To examine anti-neoplastic (anti-proliferative) and anti-metastatic properties of products 1 and 2, 120 hybrid male mice of the first generation CBA×[…] were used: each group of 10-12 mice. Lewis carcinoma was implanted to a hind paw, in the amount ˜10^6 cells (˜0.2 cm^3) Doses and dosing schemes for products 1 and 2. Route of the product administration—per os provided addition of products 1 and 2 to drinking water which was given to animals. Products 1 and 2 were added to drinking water by two schemes: within 3 weeks immediately after implantation and within 4 weeks with the dosing started prior implantation.
Anti-neoplastic (anti-proliferative) and anti-metastatic activity of products 1 and 2 was assessed based on change of tumor volume and number of lung metastases. The number of metastases was assessed on day 21 after tumor implantation (day 28 after the administration of products 1 and 2 by the 1-st scheme). For that, lungs were withdrawn in animals decapitated under anesthesia and transferred to Bouin's fluid. Metastases were visually counted. The volume of neoplasm was assessed by ellipsoid equation (1). […]
[formula] where: d1, d2, d3—mutually perpendicular tumor sizes.

The test system of data set [3] is neuroblastoma N2A cell culture. The note with it: cited from earlier work.
Where [4] appears, read: 5 mg/kg per os in drinking water, after implantation (scheme 2), day 1.
The mark [5] stands for this setting: 5 mg/kg per os in drinking water, after implantation (scheme 2), day 7.
Setting [6] is: 5 mg/kg per os in drinking water, after implantation (scheme 2), day 15.
[7] abbreviates: 5 mg/kg per os in drinking water, prior and after implantation (scheme 1), day 1.
Where [8] appears, read: 5 mg/kg per os in drinking water, prior and after implantation (scheme 1), day 7.
Where [9] appears, read: 5 mg/kg per os in drinking water, prior and after implantation (scheme 1), day 15.
Where [10] appears, read: 5 mg/kg, after implantation (scheme 2).
[11] abbreviates: 5 mg/kg, prior and after implantation (scheme 1).
[12] abbreviates: 25 mg/kg per os in drinking water, after implantation (scheme 2), day 1.
Where [13] appears, read: 25 mg/kg per os in drinking water, after implantation (scheme 2), day 7.
Setting [14] is: 25 mg/kg per os in drinking water, after implantation (scheme 2), day 15.
Setting [15] is: 25 mg/kg per os in drinking water, prior and after implantation (scheme 1), day 1.
Setting [16] is: 25 mg/kg per os in drinking water, prior and after implantation (scheme 1), day 7.
Setting [17] is: 25 mg/kg per os in drinking water, prior and after implantation (scheme 1), day 15.
Where [18] appears, read: 25 mg/kg, after implantation (scheme 2).
Setting [19] is: 25 mg/kg, prior and after implantation (scheme 1).

On to `O=C1CSC(=S)N1CCc1ccccc1` [Product 1], for which, in data set [1], the “Preventive effect in relation to hepatic tumors” value is given as “have preventive effect”. The Weight of rats in data set [1] came out at 146.4 ± 3.57 g. The “Number of animals with induced tumors” value in data set [1] stood at 15. Moreover, the “Number of hepatic tumors” value in data set [1] worked out at 15.1 ± 2.88. Besides, the Tumor volume in data set [2] (setting [4]) was 52 ± 17 mm^3; in data set [2] (setting [5]), 708 ± 86 mm^3; in data set [2] (setting [6]), 1826 ± 196 (P < 0.05) mm^3; in data set [2] (setting [7]), 40 ± 15 mm^3; in data set [2] (setting [8]), 715 ± 103 mm^3; in data set [2] (setting [9]) it was 1597 ± 133 (P < 0.01)^2 mm^3. Moreover, the Tumor volume is given as 60 ± 19 mm^3 in data set [2] (setting [12]); 812 ± 153 mm^3 in data set [2] (setting [13]); 1437 ± 325 (P < 0.01) mm^3 in data set [2] (setting [14]); 101 ± 29 mm^3 in data set [2] (setting [15]); 671 ± 104 mm^3 in data set [2] (setting [16]); 1225 ± 214 (P < 0.01) mm^3 in data set [2] (setting [17]). For the same molecule, the “Number of lung metastases” value in data set [2] (setting [10]) was 32.8 ± 8.1; in data set [2] (setting [11]) it was 42.2 ± 7.1; in data set [2] (setting [18]) it was 20.3 ± 4.2 (P < 0.01)^2; in data set [2] (setting [19]), 33.1 ± 9.1. The “Growth of Lewis carcinoma in mice” value in data set [2] is recorded as “able to inhibit growth”. In addition, the Anti-proliferative effect entry in data set [3] is “anti-proliferative effect”.

For `O=C1CSC(=S)N1CCc1ccncc1` [Product 2], the “Preventive effect in relation to hepatic tumors” value in data set [1] was “have preventive effect”. The Weight of rats in data set [1] is 145.9 ± 1.26 g. The “Number of animals with induced tumors” value in data set [1] is given as 15. Also, the “Number of hepatic tumors” value in data set [1] was determined as 16.6 ± 3.12. Further, the Tumor volume was 49 ± 15 mm^3 in data set [2] (setting [4]); 702 ± 92 mm^3 in data set [2] (setting [5]); 1806 ± 203 (P < 0.05) mm^3 in data set [2] (setting [6]); 39 ± 13 mm^3 in data set [2] (setting [7]); 706 ± 99 mm^3 in data set [2] (setting [8]); 1588 ± 127 (P < 0.01)^3 mm^3 in data set [2] (setting [9]). Further, the Tumor volume in data set [2] (setting [12]) is reported as 70 ± 14 mm^3; in data set [2] (setting [13]) it was 827 ± 140 mm^3; in data set [2] (setting [14]), 1459 ± 299 (P < 0.01) mm^3; in data set [2] (setting [15]), 98 ± 95 mm^3; in data set [2] (setting [16]) it was 650 ± 97 mm^3; in data set [2] (setting [17]), 1204 ± 226 (P < 0.01) mm^3. Besides, the “Number of lung metastases” value in data set [2] (setting [10]) is listed as 33.3 ± 7.8; in data set [2] (setting [11]) it was 43.4 ± 6.5; in data set [2] (setting [18]), 19.0 ± 5.1 (P < 0.01)^3; in data set [2] (setting [19]), 34.2 ± 8.9. Further, the “Growth of Lewis carcinoma in mice” value in data set [2] was “able to inhibit growth”.
